Literature values, collected in patent US11419872B2, “Phosphoinositide 3-kinase and Src inhibitors for treatment of pancreatic cancer” (Innoplexus AG, priority 2020, dated 2022).

Columns and labels:
[1] = system: human embryonic kidney cell line HEK293
[2] = system: breast cancer cell line MDA-MB-231
[3] = in vivo
[4] = system: colon carcinoma cell line CT26
[5] = system: pancreatic cancer cell line PANC-1; details: PANC-1 (Suzuki et al. 2016)
[6] = system: gastric cancer cell line MKN-1
[7] = for adverse events reported: literature reports
CYP3A4 = CYP3A4 (Homo sapiens, UniProt P08684)
[8] = system: primary tumours and metastasis; details: pre-clinical animal models

Chain of CYP3A4 (P08684 whole entry): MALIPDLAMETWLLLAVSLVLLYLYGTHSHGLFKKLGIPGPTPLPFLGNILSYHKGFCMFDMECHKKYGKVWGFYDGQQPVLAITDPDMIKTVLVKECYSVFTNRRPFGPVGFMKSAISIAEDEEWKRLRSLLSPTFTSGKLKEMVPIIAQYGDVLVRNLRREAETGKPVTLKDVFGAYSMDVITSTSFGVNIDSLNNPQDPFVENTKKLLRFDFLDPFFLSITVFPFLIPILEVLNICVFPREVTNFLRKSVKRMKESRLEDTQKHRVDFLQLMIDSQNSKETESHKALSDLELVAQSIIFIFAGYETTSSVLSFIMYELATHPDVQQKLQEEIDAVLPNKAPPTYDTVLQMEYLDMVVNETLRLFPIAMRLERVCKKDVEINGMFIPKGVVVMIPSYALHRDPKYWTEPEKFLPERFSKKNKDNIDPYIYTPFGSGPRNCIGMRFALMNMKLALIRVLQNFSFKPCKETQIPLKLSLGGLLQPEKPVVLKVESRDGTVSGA

In the case of `O=C1CCc2ccc(OCCCCN3CCN(c4cccc(Cl)c4Cl)CC3)cc2N1` [aripiprazole, 7-[4-[4-(2,3-dichlorophenyl)piperazin-1-yl]butoxy]-3,4-dihydro-1Hquinolin-2-one], the cell viability (glioma cell line LN428) is given as “reduced the viability”, the cell viability [1] is given as “reduced the viability” and the cell viability (glioma cell line U251) is given as “reduced the viability”. For the same compound, the cell viability [2] was “reduced the viability”, the elimination half-life [3] was “approximately 75 hours” and the cell viability [4] was “reduced the viability”. The “cell death and number of viable cells” value [5] was “induced cell death and accordingly decreased the number of viable cells”, the cell viability [6] was “reduced the viability” and the “Log P” value was 4.55.
In the case of `COc1cc(Nc2ncc(F)c(Nc3ccc4c(n3)N(COP(=O)(O)O)C(=O)C(C)(C)O4)n2)cc(OC)c1OC` [fostamatinib], the adverse events reported [7] is listed as “white blood cell disorder, hematological and hepatobiliary disorders”.
For `Cc1c(O)c(=O)ccn1C` [deferiprone], the adverse events reported [7] is listed as “joint pain, stiffness or swelling”.
For `CC[C@H](Nc1ncnc2[nH]cnc12)c1nc2cccc(F)c2c(=O)n1-c1ccccc1` [Idealisib, 5-fluoro-3-phenyl-2-[(1S)-1-(7H-purin-6-ylamino)propyl] quinazolin-4-one], the adverse events reported [7] is listed as “pneumonitis, hematological disorder, diarrhea and colitis”.
For `C[C@H](Nc1ncnc2[nH]cnc12)c1cc2cccc(Cl)c2c(=O)n1-c1ccccc1` [duvelisib, 8-Chloro-2-phenyl-3-[(1S)-1-(3H-purin-6-ylamino)ethyl]-1(2H)-isoquinolinone], the primary metabolising enzyme (CYP3A4) is given as “primarily metabolized by CYP3A4”, the adverse events reported [7] is given as “diarrhea or colitis, cutaneous reactions, infections and pneumonitis” and the safety profile ([7]; patients with advanced hematologic malignancies) is given as “manageable safety profile”.
In the case of `COc1c(OCCCN2CCOCC2)ccc2c1N=C(NC(=O)c1cnc(N)nc1)N1CCN=C21` [copanlisib, amino-N-[7-methoxy-8-(3-morpholin-4-ylpropoxy)-2,3-dihydro-1 H-imidazo [1,2-c]quinazolin-5-ylidene] pyrimidine-5-carboxamide], the adverse events reported [7] is given as “cardiac disorders, glucose metabolism disorders or neurological disorders”.
In the case of `O=C(Cc1ccc(-c2ccc(OCCN3CCOCC3)cc2)cn1)NCc1ccccc1` [KX2-391, N-benzyl-2-[5-[4-(2-morpholin-4-ylethoxy)phenyl]pyridin-2-yl] acetamide], the “growth of primary tumours and metastasis” value [8] is listed as “inhibits the growth of both primary tumours and metastasis”.
